molecular target: T1, chimeric human H3 receptor (Homo sapiens, UniProt Q9Y5N1, E19D); assay: Chimeric human H3 receptor screening GTP binding assay (inhibition of histamine-stimulated GTP-gamma35S binding, Example 8); assay type: biochemical; settings: 1 h; "+" in Ki of Table II; assay of Example 8; read-out: percent inhibition of agonist-induced GTP-gammaS binding to H3
T1 construct: made in house; host or cells: Sf9 insect cells (baculovirus infection); P2 membrane preparation
In short: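 Sf9 membranes co-expressing the chimeric receptor and a heterotrimeric G-protein (35 μg protein) in Tris pH 7.4 buffer with 10 μM GDP; compound at 4 μM plus 1 μM histamine, 125 pM GTP-gamma35S, 60 min at room temperature. Filter-bound radioactivity read; non-specific binding defined with 10 uM GTP-gammaS; percent inhibition of histamine signal.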

T1 sequence (Q9Y5N1 with tags, fused parts or gaps E19D): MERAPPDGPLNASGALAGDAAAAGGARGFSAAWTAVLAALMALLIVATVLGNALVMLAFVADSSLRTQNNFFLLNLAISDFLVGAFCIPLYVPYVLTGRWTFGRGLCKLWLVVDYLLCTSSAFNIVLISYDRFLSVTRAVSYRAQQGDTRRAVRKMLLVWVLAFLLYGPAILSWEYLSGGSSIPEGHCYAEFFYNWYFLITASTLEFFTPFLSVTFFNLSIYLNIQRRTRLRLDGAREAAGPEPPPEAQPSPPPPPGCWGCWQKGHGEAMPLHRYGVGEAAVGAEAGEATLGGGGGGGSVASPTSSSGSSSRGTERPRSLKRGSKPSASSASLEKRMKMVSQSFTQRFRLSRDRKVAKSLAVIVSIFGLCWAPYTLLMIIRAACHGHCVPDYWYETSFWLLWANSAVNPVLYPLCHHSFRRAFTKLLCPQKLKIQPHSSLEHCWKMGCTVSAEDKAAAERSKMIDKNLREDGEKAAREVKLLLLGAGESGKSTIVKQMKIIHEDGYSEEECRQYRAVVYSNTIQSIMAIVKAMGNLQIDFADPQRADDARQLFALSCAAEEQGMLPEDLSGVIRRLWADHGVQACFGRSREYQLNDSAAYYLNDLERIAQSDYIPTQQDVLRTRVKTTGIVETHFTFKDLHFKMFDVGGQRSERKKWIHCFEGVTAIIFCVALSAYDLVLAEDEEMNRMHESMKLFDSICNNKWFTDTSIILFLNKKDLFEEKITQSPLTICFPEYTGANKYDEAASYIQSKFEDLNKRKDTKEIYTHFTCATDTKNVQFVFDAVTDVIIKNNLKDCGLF

SMILES	inhibition at 4 µM [%]
O=C(CN1CCN(C(=O)c2cccnc2Oc2ccccc2)CC1)N1CCN(C2CCC2)CC1 [Compound 542, 1-cyclobutyl-4-({4-[(2-phenoxypyridin-3-yl)carbonyl]piperazin-1-yl}acetyl)piperazine]	> 90
CC(C)c1ccc(CC(=O)N2CCN(CC(=O)N3CCN(C4CCC4)CC3)CC2)cc1 [Compound 560, 1-cyclobutyl-4-({4-[(4-isopropylphenyl)acetyl]piperazin-1-yl}acetyl)piperazine]	> 90
O=C(/C=C/c1ccccc1)N1CCN(CC(=O)N2CCN(C3CCC3)CC2)CC1 [Compound 532, 1-cyclobutyl-4-({4-[(2E)-3-phenylprop-2-enoyl]piperazin-1-yl}acetyl)piperazine]	> 90
COc1cccc(OCC(=O)N2CCN(CC(=O)N3CCN(C4CCC4)CC3)CC2)c1 [Compound 551, 1-cyclobutyl-4-({4-[(3-methoxyphenoxy)acetyl]piperazin-1-yl}acetyl)piperazine]	> 90
COc1cc(/C=C/C(=O)N2CCN(CC(=O)N3CCN(C4CCC4)CC3)CC2)ccc1OCc1ccccc1 [Compound 471, 1-{(2E)-3-[4-(benzyloxy)-3-methoxyphenyl]prop-2-enoyl}-4-[2-(4-cyclobutylpiperazin-1-yl)-2-oxoethyl]piperazine]	> 90
O=C(/C=C/c1ccc(OCc2ccc(F)cc2)cc1)N1CCN(CC(=O)N2CCN(C3CCC3)CC2)CC1 [Compound 531, 1-cyclobutyl-4-({4-[(2E)-3-{4-[(4-fluorobenzyl)oxy]phenyl}prop-2-enoyl]piperazin-1-yl}acetyl)piperazine]	> 90
COc1cc(OC)c(OC)cc1/C=C/C(=O)N1CCN(CC(=O)N2CCN(C3CCC3)CC2)CC1 [Compound 518, 1-cyclobutyl-4-({4-[(2E)-3-(2,4,5-trimethoxyphenyl)prop-2-enoyl]piperazin-1-yl}acetyl)piperazine]	> 90
O=C(COc1ccc2ccccc2c1)N1CCN(CC(=O)N2CCN(C3CCC3)CC2)CC1 [Compound 540, 1-cyclobutyl-4-({4-[(2-naphthyloxy)acetyl]piperazin-1-yl}acetyl)piperazine]	> 90

Other lines, results leading:

inhibition at 4 µM [%]	SMILES
> 90	COc1ncccc1C(=O)N1CCN(CC(=O)N2CCN(C3CCC3)CC2)CC1 [Compound 537, 1-cyclobutyl-4-({4-[(2-methoxypyridin-3-yl)carbonyl]piperazin-1-yl}acetyl)piperazine]
> 90	Cc1cc(C(=O)N2CCN(CC(=O)N3CCN(C4CCC4)CC3)CC2)c(C)n1C [Compound 497, 1-cyclobutyl-4-({4-[(1,2,5-trimethyl-1H-pyrrol-3-yl)carbonyl]piperazin-1-yl}acetyl)piperazine]

same assay, conditions: 1 h; Table II "Ki", symbol "+": assay described in Example 8; read-out: percent inhibition of agonist-induced GTP-gammaS binding to H3

inhibition at 4 µM [%]	SMILES
> 90	CC(C)c1ccc(C(=O)N2CCN(CC(=O)N3CCN(C4CCC4)CC3)CC2)cc1 [Compound 777, 1-cyclobutyl-4-{[4-(4-isopropylbenzoyl)piperazin-1-yl]acetyl}piperazine]
> 90	COc1cc(C(=O)N2CCN(CC(=O)N3CCN(C4CCC4)CC3)CC2)nc2ccccc12 [Compound 895, 2-({4-[2-(4-cyclobutylpiperazin-1-yl)-2-oxoethyl]piperazin-1-yl}carbonyl)-4-methoxyquinoline]
> 90	Cc1ccc(N)c(C(=O)N2CCN(CC(=O)N3CCN(C4CCC4)CC3)CC2)c1 [Compound 893, 2-({4-[2-(4-cyclobutylpiperazin-1-yl)-2-oxoethyl]piperazin-1-yl}carbonyl)-4-methylaniline]

same assay, conditions: 1 h; Table II, "+" in the column headed Ki; assay of Example 8; read-out: percent inhibition of agonist-induced GTP-gammaS binding to H3

SMILES	inhibition at 4 µM [%]
O=C(CN1CCN(C(=O)C2COc3ccccc3O2)CC1)N1CCN(C2CCC2)CC1 (stereo not drawn) [Compound 668, 1-cyclobutyl-4-{[4-(2,3-dihydro-1,4-benzodioxin-2-ylcarbonyl)piperazin-1-yl]acetyl}piperazine]	> 90
O=C(Cc1cccc(OC(F)(F)F)c1)N1CCN(CC(=O)N2CCN(C3CCC3)CC2)CC1 [Compound 626, 1-cyclobutyl-4-[(4-{[3-(trifluoromethoxy)phenyl]acetyl}piperazin-1-yl)acetyl]piperazine]	> 90
O=C(/C=C/c1ccccc1C(F)(F)F)N1CCN(CC(=O)N2CCN(C3CCC3)CC2)CC1 [Compound 614, 1-cyclobutyl-4-[(4-{(2E)-3-[2-(trifluoromethyl)phenyl]prop-2-enoyl}piperazin-1-yl)acetyl]piperazine]	> 90
O=C(CN1CCN(C(=O)c2cncc(C#Cc3ccccc3)c2)CC1)N1CCN(C2CCC2)CC1 [Compound 634, 1-cyclobutyl-4-[(4-{[5-(phenylethynyl)pyridin-3-yl]carbonyl}piperazin-1-yl)acetyl]piperazine]	> 90
O=C(CN1CCN(C(=O)C(c2ccccc2)C2CCCC2)CC1)N1CCN(C2CCC2)CC1 (stereo not drawn) [Compound 613, 1-cyclobutyl-4-({4-[cyclopentyl(phenyl)acetyl]piperazin-1-yl}acetyl)piperazine]	> 90

Now from value to compound:

inhibition at 4 µM [%]	SMILES
> 90	COc1ccc(C(=O)N2CCN(CC(=O)N3CCN(C4CCC4)CC3)CC2)cc1OC [Compound 731, 1-cyclobutyl-4-{[4-(3,4-dimethoxybenzoyl)piperazin-1-yl]acetyl}piperazine]
> 90	CCSc1ccc(C(=O)N2CCN(CC(=O)N3CCN(C4CCC4)CC3)CC2)cc1 [Compound 598, 1-cyclobutyl-4-({4-[4-(ethylthio)benzoyl]piperazin-1-yl}acetyl)piperazine]
> 90	COc1ccccc1C(=O)N1CCN(CC(=O)N2CCN(C3CCC3)CC2)CC1 [Compound 711, 1-cyclobutyl-4-{[4-(2-methoxybenzoyl)piperazin-1-yl]acetyl}piperazine]
> 90	O=C(CN1CCN(C(=O)c2ccccc2C(F)(F)F)CC1)N1CCN(C2CCC2)CC1 [Compound 579, 1-cyclobutyl-4-({4-[2-(trifluoromethyl)benzoyl]piperazin-1-yl}acetyl)piperazine]
> 90	Cc1ccc(Oc2ccccc2C(=O)N2CCN(CC(=O)N3CCN(C4CCC4)CC3)CC2)cc1 [Compound 576]

same assay, conditions: 1 h; Table II; assay of Example 8; "+" in Ki; read-out: percent inhibition of agonist-induced GTP-gammaS binding to H3

inhibition at 4 µM [%]	SMILES
> 90	O=C(CN1CCN(C(=O)c2cnc3ccccc3c2)CC1)N1CCN(C2CCC2)CC1 [Compound 985, 3-({4-[2-(4-cyclobutylpiperazin-1-yl)-2-oxoethyl]piperazin-1-yl}carbonyl)quinoline]
> 90	O=C(CN1CCN(C(=O)c2cc(-c3ccccc3)nc3ccccc23)CC1)N1CCN(C2CCC2)CC1 [Compound 1089]

same assay, conditions: 1 h; assay described in Example 8; symbol + in column headed Ki of Table II; read-out: percent inhibition of agonist-induced GTP-gammaS binding to H3

SMILES	inhibition at 4 µM [%]
O=C(CN1CCN(C(=O)c2ccccc2Oc2ccc(Cl)cc2)CC1)N1CCN(C2CCC2)CC1 [Compound 419, 1-[2-(4-chlorophenoxy)benzoyl]-4-[2-(4-cyclobutylpiperazin-1-yl)-2-oxoethyl]piperazine]	> 90
COc1ccc(Cl)c(OC)c1C(=O)N1CCN(CC(=O)N2CCN(C3CCC3)CC2)CC1 [Compound 294, 1-(3-chloro-2,6-dimethoxybenzoyl)-4-[2-(4-cyclobutylpiperazin-1-yl)-2-oxoethyl]piperazine]	> 90
O=C(Cc1ccccc1Cl)N1CCN(CC(=O)N2CCN(C3CCC3)CC2)CC1 [Compound 384, 1-[(2-chlorophenyl)acetyl]-4-[2-(4-cyclobutylpiperazin-1-yl)-2-oxoethyl]piperazine]	> 90
COc1ccc(/C=C/C(=O)N2CCN(CC(=O)N3CCN(C4CCC4)CC3)CC2)c(Cl)c1OC [Compound 387, 1-[(2E)-3-(2-chloro-3,4-dimethoxyphenyl)prop-2-enoyl]-4-[2-(4-cyclobutylpiperazin-1-yl)-2-oxoethyl]piperazine]	> 90
O=C(Cc1ccc(Br)cc1)N1CCN(CC(=O)N2CCN(C3CCC3)CC2)CC1 [Compound 403, 1-[(4-bromophenyl)acetyl]-4-[2-(4-cyclobutylpiperazin-1-yl)-2-oxoethyl]piperazine]	> 90
O=C(COc1ccc(Cl)cc1)N1CCN(CC(=O)N2CCN(C3CCC3)CC2)CC1 [Compound 406, 1-[(4-chlorophenoxy)acetyl]-4-[2-(4-cyclobutylpiperazin-1-yl)-2-oxoethyl]piperazine]	> 90
CCOc1ccc(Br)cc1/C=C/C(=O)N1CCN(CC(=O)N2CCN(C3CCC3)CC2)CC1 [Compound 392, 1-[(2E)-3-(5-bromo-2-ethoxyphenyl)prop-2-enoyl]-4-[2-(4-cyclobutylpiperazin-1-yl)-2-oxoethyl]piperazine]	> 90

The remaining lines, values ahead:

inhibition at 4 µM [%]	SMILES
> 90	O=C(CN1CCN(C(=O)c2cncc(Br)c2)CC1)N1CCN(C2CCC2)CC1 [Compound 411, 1-[(5-bromopyridin-3-yl)carbonyl]-4-[2-(4-cyclobutylpiperazin-1-yl)-2-oxoethyl]piperazine]
> 90	O=C(CN1CCN(C(=O)c2cc3ccccc3s2)CC1)N1CCN(C2CCC2)CC1 [Compound 261, 1-(1-benzothien-2-ylcarbonyl)-4-[2-(4-cyclobutylpiperazin-1-yl)-2-oxoethyl]piperazine]
> 90	O=C(CN1CCN(C(=O)c2ccc3c(c2)OCO3)CC1)N1CCN(C2CCC2)CC1 [Compound 260, 1-(1,3-benzodioxol-5-ylcarbonyl)-4-[2-(4-cyclobutylpiperazin-1-yl)-2-oxoethyl]piperazine]
> 90	O=C(CN1CCN(C(=O)c2cccc(Cl)c2)CC1)N1CCN(C2CCC2)CC1 [Compound 299, 1-(3-chlorobenzoyl)-4-[2-(4-cyclobutylpiperazin-1-yl)-2-oxoethyl]piperazine]
